Assay results published in patent US12344595B2, “2-amino-n-phenyl-nicotinamides as NAV1.8 inhibitors” (Merck Sharp & Dohme LLC, priority 2018, dated 2025).

Target: human Nav1.8 (Homo sapiens (Human), UniProt Q9Y5Y9)
Assay: Nav1.8 Qube automated patch-clamp assay
Assay type: cell-based
Conditions: Nav1.8 Qube Assay; human Nav1.8 channels stably expressed in HEK 293 cells
How it was run: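 Whole-cell automated patch clamp was run at room temperature on HEK293 cells stably expressing the channel. A 1 Hz, 10 s train of 20 ms pulses to 10 mV from −90 mV (repolarizing to −67 mV) was applied. Peak currents at the 1st and 10th pulses gave resting and inactivated-state IC50 values by Hill fit.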

Chain of human Nav1.8 (Q9Y5Y9 whole entry): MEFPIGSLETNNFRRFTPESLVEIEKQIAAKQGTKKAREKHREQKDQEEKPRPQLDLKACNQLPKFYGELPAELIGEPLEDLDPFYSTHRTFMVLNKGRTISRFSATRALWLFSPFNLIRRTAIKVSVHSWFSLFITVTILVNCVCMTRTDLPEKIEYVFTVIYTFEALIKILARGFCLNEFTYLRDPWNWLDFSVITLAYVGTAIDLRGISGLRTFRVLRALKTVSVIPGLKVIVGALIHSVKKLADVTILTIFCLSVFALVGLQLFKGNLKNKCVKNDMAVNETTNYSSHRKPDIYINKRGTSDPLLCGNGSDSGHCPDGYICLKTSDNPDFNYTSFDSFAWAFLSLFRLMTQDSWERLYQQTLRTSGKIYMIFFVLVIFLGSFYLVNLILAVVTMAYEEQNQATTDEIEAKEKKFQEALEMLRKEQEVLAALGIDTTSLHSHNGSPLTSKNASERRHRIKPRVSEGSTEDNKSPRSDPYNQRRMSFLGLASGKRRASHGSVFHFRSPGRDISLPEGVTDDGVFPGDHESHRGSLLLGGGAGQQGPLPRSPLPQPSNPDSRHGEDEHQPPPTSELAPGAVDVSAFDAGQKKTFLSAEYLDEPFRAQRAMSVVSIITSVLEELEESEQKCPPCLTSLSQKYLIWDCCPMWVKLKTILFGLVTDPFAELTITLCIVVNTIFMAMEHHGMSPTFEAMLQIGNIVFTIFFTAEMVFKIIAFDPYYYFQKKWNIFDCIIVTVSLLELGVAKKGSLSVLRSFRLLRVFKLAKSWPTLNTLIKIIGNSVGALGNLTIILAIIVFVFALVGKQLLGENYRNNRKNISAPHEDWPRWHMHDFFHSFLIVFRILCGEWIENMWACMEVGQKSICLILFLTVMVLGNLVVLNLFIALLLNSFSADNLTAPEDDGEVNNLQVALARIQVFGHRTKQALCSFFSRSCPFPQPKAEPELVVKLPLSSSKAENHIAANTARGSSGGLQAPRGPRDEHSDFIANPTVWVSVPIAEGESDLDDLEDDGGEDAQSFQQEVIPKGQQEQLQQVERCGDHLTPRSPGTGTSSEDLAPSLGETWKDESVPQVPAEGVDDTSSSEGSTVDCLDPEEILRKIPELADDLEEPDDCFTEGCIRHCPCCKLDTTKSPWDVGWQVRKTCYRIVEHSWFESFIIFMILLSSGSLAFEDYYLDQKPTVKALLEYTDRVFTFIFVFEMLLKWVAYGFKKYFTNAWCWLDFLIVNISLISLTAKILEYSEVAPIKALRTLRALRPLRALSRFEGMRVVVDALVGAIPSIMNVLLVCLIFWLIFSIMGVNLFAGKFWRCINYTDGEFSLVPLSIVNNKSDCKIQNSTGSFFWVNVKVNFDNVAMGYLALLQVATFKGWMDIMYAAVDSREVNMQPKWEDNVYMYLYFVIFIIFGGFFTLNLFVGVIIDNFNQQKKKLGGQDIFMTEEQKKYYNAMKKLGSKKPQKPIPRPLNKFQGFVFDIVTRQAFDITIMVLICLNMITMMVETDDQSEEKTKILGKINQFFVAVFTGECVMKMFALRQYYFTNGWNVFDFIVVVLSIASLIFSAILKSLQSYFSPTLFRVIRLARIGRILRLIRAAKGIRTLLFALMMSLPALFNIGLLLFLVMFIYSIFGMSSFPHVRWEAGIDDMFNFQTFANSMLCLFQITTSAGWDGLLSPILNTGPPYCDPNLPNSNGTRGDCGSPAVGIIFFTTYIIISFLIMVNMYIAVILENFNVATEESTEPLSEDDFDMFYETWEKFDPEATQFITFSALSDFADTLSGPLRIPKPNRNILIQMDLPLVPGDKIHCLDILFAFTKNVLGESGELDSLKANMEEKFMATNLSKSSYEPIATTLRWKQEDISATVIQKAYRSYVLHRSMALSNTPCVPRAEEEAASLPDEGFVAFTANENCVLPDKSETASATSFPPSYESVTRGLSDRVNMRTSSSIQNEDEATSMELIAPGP

In order of falling IC50:
1. CS(=O)(=O)c1cccc(NC(=O)c2cc(C(F)(F)F)cnc2N2CCC(c3ccccc3)CC2)c1 [Example 105, N-(3-methylsulfonylphenyl)-2-(4-phenyl-1-piperidyl)-5-(trifluoro-methyl)pyridine-3-carboxamide]  8720 nM
2. NS(=O)(=O)c1cccc(NC(=O)c2cc(F)cnc2N2CCCCC2)c1 [Example 6, 5-fluoro-2-(1-piperidyl)-N-(3-sulfamoyl-phenyl)pyridine-3-carboxamide]  8320 nM
3. O=C(Nc1cccc(S(=O)(=O)C2CCCC2)c1)c1cc(C(F)(F)F)cnc1N1CCCCCC1 [Example 120, 2-(azepan-1-yl)-N-(3-cyclopentylsulfonylphenyl)-5-(trifluoro-methyl)-pyridine-3-carboxamide]  3020 nM
4. NS(=O)(=O)c1ccc(F)c(NC(=O)c2cc(C(F)(F)F)cnc2N2CCCCC2)c1 [Example 116, N-(2-fluoro-5-sulfamoyl-phenyl)-2-(1-piperidyl)-5-(tri-fluoromethyl)pyridine-3-carboxamide]  3000 nM
5. NS(=O)(=O)c1cccc(NC(=O)c2cc(C(F)(F)F)cnc2N2CCC(F)(F)C2)c1 [Example 60, 2-(3,3-difluoropyrrolidin-1-yl)-N-(3-sulfamoyl-phenyl)-5-(trifluoromethyl) pyridine-3-carboxamide]  737 nM
6. NS(=O)(=O)c1cccc(NC(=O)c2ccc(C(F)(F)C(F)(F)F)nc2N2CCCCC2)c1 [Example 165, 6-(1,1,2,2,2-pentafluoroethyl)-2-(1-piperidyl)-N-(3-sulfamoylphenyl) pyridine-3-carboxamide]  342 nM
7. O=C(Nc1ccc2c(c1)S(=O)(=O)NC2)c1cc(C(F)(F)F)cnc1N1CCCCCC1 [Example 121, 2-(azepan-1-yl)-N-(1,1-dioxo-2,3-dihydro-1,2-benzothiazol-6-yl)-5-(trifluoromethyl)-pyridine-3-carboxamide]  189 nM
8. COC1CCCN(c2ncc(C(F)(F)F)cc2C(=O)Nc2cccc(S(N)(=O)=O)c2)CC1 (stereo not drawn) [Example 49, 2-(4-methoxyazepan-1-yl)-N-(3-sulfamoyl-phenyl)-5-(trifluoro-methyl)pyridine-3-carboxamide]  186 nM
9. Cc1cnc(N2CCCCCC2)c(C(=O)Nc2cccc(S(N)(=O)=O)c2)c1 [Example 23, 2-(azepan-1-yl)-5-methyl-N-(3-sulfamoyl-phenyl)nicotinamide]  112 nM
10. CS(=O)(=O)c1cccc(NC(=O)c2cc(C(F)(F)F)cnc2N2CCc3ccccc3C2)c1 [Example 98, 2-(3,4-dihydro-1H-isoquinolin-2-yl)-N-(3-methylsulfonylphenyl)-5-(trifluoromethyl)-pyridine-3-carboxamide]  93 nM
11. CS(=O)(=O)c1cccc(NC(=O)c2cc(C(F)(F)F)cnc2N2CCC(F)(F)CC2)c1 [Example 152, 2-(4,4-difluoropiperidin-1-yl)-N-(3-(methylsulfonyl)phenyl)-5-(trifluoromethyl)nicotinamide]  67 nM
12. CS(=O)(=O)c1cccc(NC(=O)c2cc(Br)cnc2N2CCCCCC2)c1 [Example 35, 2-(azepan-1-yl)-5-bromo-N-(3-methylsulfonyl-phenyl)pyridine-3-carboxamide]  29 nM
13. NS(=O)(=O)c1cccc(NC(=O)c2cc(C(F)(F)F)cnc2N2C[C@H]3CC[C@H]3C2)c1 [Example 134, 2-((1R,5S)-3-azabicyclo[3.2.0]heptan-3-yl]-N-(3-sulfamoyl-phenyl)-5-(trifluoro-methyl)-pyridine-3-carboxamide]  25 nM
14. NS(=O)(=O)c1cccc(NC(=O)c2cc(C(F)(F)F)cnc2N2CC3CC4CC(C3)CC2C4)c1 [Example 46, N-(3-sulfamoylphenyl)-2-(4-azatricyclo-[4.3.1.13,8]undecan-4-yl)-5-(trifluoromethyl)-nicotinamide]  12 nM
15. CC1(C)CCCN(c2ncc(C(F)(F)F)cc2C(=O)Nc2cccc(S(N)(=O)=O)c2)CC1 [Example 80, 2-(4,4-dimethylazepan-1-yl)-N-(3-sulfamoyl-phenyl)-5-(trifluoro-methyl)nicotinamide]  11 nM
